The text below walks through data of US20250295083A1, “METHODS FOR PRODUCING AN ORGANOGENIC CALLUS AND COMPOSITIONS, SYSTEMS, AND METHODS RELATING THERETO” (Pairwise Plants Services, Inc., priority 2022, published 2025).

Entries after “also recorded” stand apart in the source; their conditions may differ.

The assay has as its system cross sections of the stems (including nodes) of the lateral shoots, cherry variety Sweetheart. The assay is described as follows: Callus induction from cut stem cross sections (including nodes) cultured on media. It is filed as cell-based, sweet cherry (Prunus avium). To be noted: 24° C., 8 weeks in the dark. As for the experimental part: The cherry variety, Sweetheart, was grown in a greenhouse and stem tissue was collected. The stem tissue was grown in vitro on propagation media (Table 1) at 25° C., 40 μM light with a 16 hour photoperiod until lateral shoots began to emerge. The stem tissue with lateral shoots were grown on the propagation media for no more than 10 days and were collected by day 10.
Leaves and petioles were removed from the lateral shoots and cross sections of the stems (including nodes) of the lateral shoots were cut. The cross sections of the stems were about 0.5 mm wide. For the purpose of inducing callus formation, the cut material was then placed onto either Garin media as described in Garin, E., et al. (1997). Plant cell, tissue and organ culture, 48(2), 83-91, media comprising 2 mg TDZ, media comprising 5 mg TDZ, or media comprising 10 mg TDZ and cultured at 24° C. for 8 weeks in the dark. The plant material was moved to fresh media approximately every three weeks. If endophyte growth was noted as the experiment was progressing, then the media was supplemented with 200 mg/L cefoxatime. Approximately 149 nodes were processed and cultured on the media containing 5 mg TDZ. Approximately 149 nodes were processed and cultured on the media containing 10 mg TDZ. Approximately 324 nodes were processed and cultured on the Garin media. The lateral shoots were cultured for a total of 8 weeks on the medias described above and then observed for the formation of callus.

For `O=C(Nc1ccccc1)Nc1cnns1` [TDZ, thidiazuron], the “Observations (callus formation)” value is, setting by setting: (media comprising 2 mg TDZ) “Small amount of callus formed”; (media comprising 5 mg TDZ) “Moderate amount of callus but much”; (media comprising 10 mg TDZ (10 mg/L)) “many more of the tissues developing callus; also recorded: along with considerably more mass being”. Also, the tissues forming callus (media comprising 10 mg TDZ) was “Nearly 100% of tissues forming callus”.
